Assay: Case: patient with ascending spinal cord edema after thoracic fracture and spinal cord injury, treated intravenously
Type: in vivo
Conditions: spinal cord edema on MRI after laminectomy and surgical fixation, intravenous dose of 500 mg in sterile saline, within a short period
Method: A patient, suffers a fractured thoracic vertebrae and spinal cord injury. […] An intravenous dose of 500 mg of acetazolamide in sterile saline is administered.

In the case of `CC(=O)Nc1nnc(S(N)(=O)=O)s1` [acetazolamide], the “neurological outcome (sensory and motor functions)” value is reported as “regains sensory and motor functions in their upper extremities”.
